Measured values: patent US20130252935A1, “Monobactams” (PFIZER INC., priority 2010, published 2013)
Values after ≈ are worked out from the molar mass of the structure shown.

What was measured:
Assay type in all cases: cell-based
[1] = tested on: Klebsiella pneumoniae 1000-02; test: minimum inhibitory concentration (MIC) testing according to CLSI guidelines, Klebsiella pneumoniae; settings: Klebsiella pneumoniae; ciprofloxacin-resistant, ESBL-expressing clinical isolate 1000-02; overnight incubation; lower of duplicate values; read-out: AB-MBT: Klebsiella pneumoniae 1000-02: MIC (MstRcnt)
How it was run: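 MIC by CLSI broth dilution with 2-fold concentration steps and overnight incubation; lowest concentration visibly inhibiting growth versus drug-free control. Ciprofloxacin-resistant, ESBL-expressing clinical isolate 1000-02. Run in duplicate, lower value reported when within 2-fold, with QC organisms and reference compounds per run.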

[2] = tested on: Pseudomonas aeruginosa UC-12120; test: minimum inhibitory concentration (MIC) testing according to CLSI guidelines, Pseudomonas aeruginosa; settings: Pseudomonas aeruginosa, UC12120; UC-12120, wild-type, labeled as 1091-05; overnight incubation; lower of duplicate values; read-out: AB-MBT: Pseudomonas aeruginosa 1091-05: MIC (MstRcn)
How it was run: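 Broth dilution MIC per CLSI guidelines against wild-type P. aeruginosa UC-12120 (1091-05), using 2-fold drug dilutions and overnight incubation with visual reading of lowest growth-inhibiting concentration. Tested in duplicate; lower value reported when within 2-fold, with control organisms and reference compounds for quality control.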

[3] = tested on: Acinetobacter baumannii/haemolyticus AB-3167; test: minimum inhibitory concentration (MIC) testing according to CLSI guidelines, Acinetobacter; settings: Acinetobacter baumannii; multidrug-resistant clinical isolate AB-3167; overnight incubation; lower of duplicate values; read-out: AB-MBT: Acinetobacter baumanii AB-3167: MIC (MstRcnt)
How it was run: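 Broth dilution MIC per CLSI M7-A8/M100-S20 against multidrug-resistant clinical isolate AB-3167, using 2-fold drug dilutions and overnight incubation; MIC is the lowest concentration without visible growth. Duplicates within 2-fold reported as the lower value, with control strains and reference compounds in range.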

Structure (SMILES) | MIC [1] [µg/mL] | MIC [2] [µg/mL] | MIC [3] [µg/mL]
CC(C)(O/N=C(\C(=O)N[C@@H]1C(=O)N(S(=O)(=O)O)[C@@H]1CNC(=O)Nc1cc(=O)c(O)c[nH]1)c1csc(N)n1)C(=O)O [Example 57, 2-({[(1Z)-1-(2-amino-1,3-thiazol-4-yl)-2-{[(2R,3S)-2-({[(5-hydroxy-4-oxo-1,4-dihydropyridin-2-yl)carbamoyl]amino}methyl)-4-oxo-1-sulfoazetidin-3-yl]amino}-2-oxoethylidene]amino}oxy)-2-methylpropanoic acid] | 4 (≈ 6.64 µM) | 2 (≈ 3.32 µM) | 1 (≈ 1.66 µM)
CC(C)(O/N=C(\C(=O)N[C@@H]1C(=O)N(S(=O)(=O)O)[C@@H]1COC(=O)c1csc(-c2cc(=O)c(O)c[nH]2)n1)c1csc(N)n1)C(=O)O [Example 19, 2-({[(1Z)-1-(2-amino-1,3-thiazol-4-yl)-2-({(2S,3S)-2-[({[2-(5-hydroxy-4-oxo-1,4-dihydropyridin-2-yl)-1,3-thiazol-4-yl]carbonyl}oxy)methyl]-4-oxo-1-sulfoazetidin-3-yl}amino)-2-oxoethylidene]amino}oxy)-2-methylpropanoic acid] | 1 (≈ 1.49 µM) | 0.5 (≈ 0.744 µM) | 1 (≈ 1.49 µM)
C[C@@H](NC(=O)NCc1cc(=O)c(O)cn1O)C(=O)NC[C@@H]1[C@H](NC(=O)/C(=N\OC(C)(C)C(=O)O)c2csc(N)n2)C(=O)N1S(=O)(=O)O [Example 49, 2-({[(1Z)-1-(2-amino-1,3-thiazol-4-yl)-2-{[(2R,3S)-2-{[(N-{[(1,5-dihydroxy-4-oxo-1,4-dihydropyridin-2-yl)methyl]carbamoyl}-D-alanyl)amino]methyl}-4-oxo-1-sulfoazetidin-3-yl]amino}-2-oxoethylidene]amino}oxy)-2-methylpropanoic acid] | 0.5 (≈ 0.711 µM) | 0.5 (≈ 0.711 µM) | 0.5 (≈ 0.711 µM)
Nc1nc(/C(=N/OCC(=O)O)C(=O)N[C@@H]2C(=O)N(S(=O)(=O)O)[C@@H]2CNC(=O)NCc2cc(=O)c(O)cn2O)cs1 [Example 69, ({[(1Z)-1-(2-amino-1,3-thiazol-4-yl)-2-({(2R,3S)-2-[({[(1,5-dihydroxy-4-oxo-1,4-dihydropyridin-2-yl)methyl]carbamoyl}amino)methyl]-4-oxo-1-sulfoazetidin-3-yl}amino)-2-oxoethylidene]amino}oxy)acetic acid] | 1 (≈ 1.65 µM) | 0.25 (≈ 0.414 µM) | 0.25 (≈ 0.414 µM)
Nc1nc(/C(=N/OC2(C(=O)O)CCC2)C(=O)N[C@@H]2C(=O)N(S(=O)(=O)O)[C@@H]2CNC(=O)NCc2cc(=O)c(O)cn2O)cs1 [Example 30, 1-({[(1Z)-1-(2-amino-1,3-thiazol-4-yl)-2-({(2R,3S)-2-[({[(1,5-dihydroxy-4-oxo-1,4-dihydropyridin-2-yl)methyl]carbamoyl}amino)methyl]-4-oxo-1-sulfoazetidin-3-yl}amino)-2-oxoethylidene]amino}oxy)cyclobutanecarboxylic acid] | 0.125 (≈ 0.194 µM) | 0.125 (≈ 0.194 µM) | 0.25 (≈ 0.388 µM)
CC(C)(O/N=C(\C(=O)N[C@@H]1C(=O)N(S(=O)(=O)O)[C@@H]1CNC(=O)c1ccc(C(=O)NCc2cc(=O)c(O)cn2O)cc1)c1csc(N)n1)C(=O)O [Example 43, 2-({[(1Z)-1-(2-amino-1,3-thiazol-4-yl)-2-{[(2R,3S)-2-{[(4-{[(1,5-dihydroxy-4-oxo-1,4-dihydropyridin-2-yl)methyl]carbamoyl}benzoyl)amino]methyl}-4-oxo-1-sulfoazetidin-3-yl]amino}-2-oxoethylidene]amino}oxy)-2-methylpropanoic acid] | 0.5 (≈ 0.679 µM) | 0.125 (≈ 0.17 µM) | 0.25 (≈ 0.339 µM)
CC(C)(O/N=C(\C(=O)N[C@@H]1C(=O)N(S(=O)(=O)[O-])[C@@H]1CNC(=O)c1cc(=O)c(O)cn1O)c1csc(N)n1)C(=O)[O-].[Na+].[Na+] [Example 11, 2-({[(1Z)-1-(2-amino-1,3-thiazol-4-yl)-2-{[(2R,3S)-2-({[(1,5-dihydroxy-4-oxo-1,4-dihydropyridin-2-yl)carbonyl]amino}methyl)-4-oxo-1-sulfoazetidin-3-yl]amino}-2-oxoethylidene]amino}oxy)-2-methylpropanoic acid, disodium salt] | 0.06 | 0.5 | 1
CC(C)(O/N=C(\C(=O)N[C@@H]1C(=O)N(S(=O)(=O)O)[C@@H]1CNC(=O)NCc1cc(=O)c(O)cn1O)c1nc(N)sc1Cl)C(=O)O [Example 29, 2-({[(1Z)-1-(2-amino-5-chloro-1,3-thiazol-4-yl)-2-({(2R,3S)-2-[({[(1,5-dihydroxy-4-oxo-1,4-dihydropyridin-2-yl)methyl]carbamoyl}amino)methyl]-4-oxo-1-sulfoazetidin-3-yl}amino)-2-oxoethylidene]amino}oxy)-2-methylpropanoic acid] | 1 (≈ 1.5 µM) | 0.25 (≈ 0.375 µM) | 0.5 (≈ 0.75 µM)
C[C@H](NC(=O)NCc1cc(=O)c(O)cn1O)C(=O)NC[C@@H]1[C@H](NC(=O)/C(=N\OC(C)(C)C(=O)O)c2csc(N)n2)C(=O)N1S(=O)(=O)O [Example 55, 2-({[(1Z)-1-(2-amino-1,3-thiazol-4-yl)-2-{[(2R,3S)-2-{[(N-{[(1,5-dihydroxy-4-oxo-1,4-dihydropyridin-2-yl)methyl]carbamoyl}-L-alanyl)amino]methyl}-4-oxo-1-sulfoazetidin-3-yl]amino}-2-oxoethylidene]amino}oxy)-2-methylpropanoic acid] | 2 (≈ 2.84 µM) | 0.25 (≈ 0.355 µM) | 0.5 (≈ 0.711 µM)
CC(C)(O/N=C(\C(=O)N[C@@H]1C(=O)N(S(=O)(=O)O)[C@@H]1CNC(=O)NCc1cc(=O)c(O)cn1O)c1csc(N)n1)C(=O)O [Example 4, 2-({[(1Z)-1-(2-amino-1,3-thiazol-4-yl)-2-({(2R,3S)-2-[({[(1,5-dihydroxy-4-oxo-1,4-dihydropyridin-2-yl)methyl]carbamoyl}amino)methyl]-4-oxo-1-sulfoazetidin-3-yl}amino)-2-oxoethylidene]amino}oxy)-2-methylpropanoic acid] | 0.125 (≈ 0.198 µM) | 0.125 (≈ 0.198 µM) | 0.5 (≈ 0.79 µM)
CC(C)(O/N=C(\C(=O)N[C@@H]1C(=O)N(S(=O)(=O)O)[C@@H]1CNC(=O)c1cc(-c2cc(=O)c(O)c[nH]2)no1)c1csc(N)n1)C(=O)O [Example 14, 2-({[(1Z)-1-(2-amino-1,3-thiazol-4-yl)-2-({(2R,3S)-2-[({[3-(5-hydroxy-4-oxo-1,4-dihydropyridin-2-yl)isoxazol-5-yl]carbonyl}amino)methyl]-4-oxo-1-sulfoazetidin-3-yl}amino)-2-oxoethylidene]amino}oxy)-2-methylpropanoic acid] | 0.5 (≈ 0.764 µM) | 1 (≈ 1.53 µM) | 0.5 (≈ 0.764 µM)
CC(C)(O/N=C(\C(=O)N[C@@H]1C(=O)N(S(=O)(=O)O)[C@@H]1CNC(=O)c1cnc(-c2cc(=O)c(O)c[nH]2)nc1)c1csc(N)n1)C(=O)O [Example 24, 2-({[(1Z)-1-(2-amino-1,3-thiazol-4-yl)-2-({(2R,3S)-2-[({[2-(5-hydroxy-4-oxo-1,4-dihydropyridin-2-yl)pyrimidin-5-yl]carbonyl}amino)methyl]-4-oxo-1-sulfoazetidin-3-yl}amino)-2-oxoethylidene]amino}oxy)-2-methylpropanoic acid] | 16 (≈ 24 µM) | 1 (≈ 1.5 µM) | 2 (≈ 3 µM)
